# Measured values reported in ChEMBL document CHEMBL3885861, “Open TG-GATES”.
# Organism: Rattus norvegicus
# Assay: Open TG-GATES - Regimen: Single
# Assay type: toxicity, organism-based, Sprague-Dawley
# Parameters: regimen Single, gender Male, age 6 weeks
# Conditions: in vivo, po, 20 mg/kg, route gavage, dose level Low; for APTT / Bas / Eos / Fbg / Hb / Ht / Lym / MCH / MCHC / MCV / Mono / Neu / PT / Plat / RBC / Ret / WBC: tissue Blood; for KIDNEY_L / KIDNEY_R / KIDNEY_TOTAL: tissue Kidney; for LIVER: tissue Liver; for A/G / ALP / ALT / AST / BUN / CRE / Ca / Cl / DBIL / GLC / IP / K / LDH / Na / PL / RALB / TBIL / TC / TG / TP / gamma-GTP: tissue Plasma
smiles,measurement,setting,value
Cn1c(=O)c2[nH]cnc2n(C)c1=O.O [THEOPHYLLINE],TERMINAL_BW,3 h,211.4 g
same,APTT,3 h,22.4 s
same,Bas,3 h,0%
same,Eos,3 h,1%
same,Fbg,3 h,298.2 mg/dL
same,Hb,3 h,13.1 g/dL
same,Ht,3 h,39.2%
same,Lym,3 h,80.4%
same,MCH,3 h,21.1 pg
same,MCHC,3 h,33.5%
same,MCV,3 h,62.9 fL
same,Mono,3 h,2.4%
same,Neu,3 h,15.2%
same,PT,3 h,15.8 s
same,Plat,3 h,125.8 x10_4/uL
same,RBC,3 h,623 x10_4/ul
same,Ret,3 h,7.2%
same,WBC,3 h,83.9 x10_2/uL
same,KIDNEY_L,3 h,0.9 g
same,KIDNEY_R,3 h,0.9 g
same,KIDNEY_TOTAL,3 h,1.8 g
same,LIVER,3 h,9.4 g
same,A/G,3 h,1.3
same,ALP,3 h,1988.6 IU/L
same,ALT,3 h,46.8 IU/L
same,AST,3 h,75 IU/L
same,BUN,3 h,14.4 mg/dL
same,CRE,3 h,0.2 mg/dL
same,Ca,3 h,10.6 mg/dL
same,Cl,3 h,108.8 meq/L
same,DBIL,3 h,0 mg/dL
same,GLC,3 h,181.8 mg/dL
same,IP,3 h,7.2 mg/dL
same,K,3 h,3.5 meq/L
same,LDH,3 h,159.2 IU/L
same,Na,3 h,141.8 meq/L
same,PL,3 h,137.4 mg/dL
same,RALB,3 h,3.2 g/dL
same,TBIL,3 h,0.02 mg/dL
same,TC,3 h,80.6 mg/dL
same,TG,3 h,45.4 mg/dL
same,TP,3 h,5.8 g/dL
same,gamma-GTP,3 h,1.2 IU/L
same,TERMINAL_BW,6 h,213.7 g
same,APTT,6 h,23.5 s
same,Bas,6 h,0%
same,Eos,6 h,0.6%
same,Fbg,6 h,315.4 mg/dL
same,Hb,6 h,13.8 g/dL
same,Ht,6 h,41.9%
same,Lym,6 h,82.8%
same,MCH,6 h,20.8 pg
same,MCHC,6 h,33.1%
same,MCV,6 h,63 fL
same,Mono,6 h,2.4%
same,Neu,6 h,12.8%
same,PT,6 h,15.5 s
same,Plat,6 h,129.9 x10_4/uL
same,RBC,6 h,664.6 x10_4/ul
same,Ret,6 h,7.4%
same,WBC,6 h,99.4 x10_2/uL
same,KIDNEY_L,6 h,0.9 g
same,KIDNEY_R,6 h,0.9 g
same,KIDNEY_TOTAL,6 h,1.9 g
same,LIVER,6 h,9 g
same,A/G,6 h,1.2
same,ALP,6 h,1532.8 IU/L
same,ALT,6 h,46 IU/L
same,AST,6 h,85.2 IU/L
same,BUN,6 h,9.8 mg/dL
same,CRE,6 h,0.2 mg/dL
same,Ca,6 h,10.5 mg/dL
same,Cl,6 h,108.2 meq/L
same,DBIL,6 h,0 mg/dL
same,GLC,6 h,178.2 mg/dL
same,IP,6 h,8.4 mg/dL
same,K,6 h,3.8 meq/L
same,LDH,6 h,174.8 IU/L
same,Na,6 h,141 meq/L
same,PL,6 h,126.6 mg/dL
same,RALB,6 h,3.1 g/dL
same,TBIL,6 h,0.02 mg/dL
same,TC,6 h,73.2 mg/dL
same,TG,6 h,51.8 mg/dL
same,TP,6 h,5.6 g/dL
same,gamma-GTP,6 h,1.2 IU/L
same,TERMINAL_BW,9 h,210.6 g
same,APTT,9 h,23.2 s
same,Bas,9 h,0%
same,Eos,9 h,1%
same,Fbg,9 h,297 mg/dL
same,Hb,9 h,13.5 g/dL
same,Ht,9 h,40.9%
same,Lym,9 h,78%
same,MCH,9 h,20.4 pg
same,MCHC,9 h,33%
same,MCV,9 h,61.6 fL
same,Mono,9 h,2.4%
same,Neu,9 h,18%
same,PT,9 h,15.6 s
same,Plat,9 h,121.1 x10_4/uL
same,RBC,9 h,666.6 x10_4/ul
same,Ret,9 h,6.9%
same,WBC,9 h,89.6 x10_2/uL
same,KIDNEY_L,9 h,0.9 g
same,KIDNEY_R,9 h,1 g
same,KIDNEY_TOTAL,9 h,1.9 g
same,LIVER,9 h,8.8 g
same,A/G,9 h,1.3
same,ALP,9 h,1401 IU/L
same,ALT,9 h,43.4 IU/L
same,AST,9 h,73.8 IU/L
same,BUN,9 h,11.6 mg/dL
same,CRE,9 h,0.2 mg/dL
same,Ca,9 h,10.9 mg/dL
same,Cl,9 h,106 meq/L
same,DBIL,9 h,0 mg/dL
same,GLC,9 h,170.4 mg/dL
same,IP,9 h,8.8 mg/dL
same,K,9 h,4.3 meq/L
same,LDH,9 h,168 IU/L
same,Na,9 h,140.8 meq/L
same,PL,9 h,120.8 mg/dL
same,RALB,9 h,3.1 g/dL
same,TBIL,9 h,0.014 mg/dL
same,TC,9 h,66.8 mg/dL
same,TG,9 h,51.4 mg/dL
same,TP,9 h,5.6 g/dL
same,gamma-GTP,9 h,1.2 IU/L
same,TERMINAL_BW,24 h,224.5 g
same,APTT,24 h,22.3 s
same,Bas,24 h,0%
same,Eos,24 h,1%
same,Fbg,24 h,316.8 mg/dL
same,Hb,24 h,13.7 g/dL
same,Ht,24 h,40.8%
same,Lym,24 h,80%
same,MCH,24 h,20.6 pg
same,MCHC,24 h,33.5%
same,MCV,24 h,61.5 fL
same,Mono,24 h,2.6%
same,Neu,24 h,15.2%
same,PT,24 h,15.9 s
same,Plat,24 h,146.8 x10_4/uL
same,RBC,24 h,664.2 x10_4/ul
same,Ret,24 h,7.2%
same,WBC,24 h,79.6 x10_2/uL
same,KIDNEY_L,24 h,0.9 g
same,KIDNEY_R,24 h,1 g
same,KIDNEY_TOTAL,24 h,1.9 g
same,LIVER,24 h,10.2 g
same,A/G,24 h,1.2
same,ALP,24 h,1615.2 IU/L
same,ALT,24 h,38.6 IU/L
same,AST,24 h,67.6 IU/L
same,BUN,24 h,16.4 mg/dL
same,CRE,24 h,0.2 mg/dL
same,Ca,24 h,11.1 mg/dL
same,Cl,24 h,106.2 meq/L
same,DBIL,24 h,0 mg/dL
same,GLC,24 h,186 mg/dL
same,IP,24 h,7.8 mg/dL
same,K,24 h,4.3 meq/L
same,LDH,24 h,175.8 IU/L
same,Na,24 h,142.6 meq/L
same,PL,24 h,145.8 mg/dL
same,RALB,24 h,3.1 g/dL
same,TBIL,24 h,0.006 mg/dL
same,TC,24 h,79.2 mg/dL
same,TG,24 h,94.4 mg/dL
same,TP,24 h,5.6 g/dL
same,gamma-GTP,24 h,1.8 IU/L
